Measured values: EP4563577A1, “NOVEL SALT OF IMIDAZO[1,2-A]PYRIDINE COMPOUND, CRYSTALLINE FORM THEREOF, AND PREPARATION METHOD” (Jeil Pharmaceutical Co., Ltd., priority 2022, dated 2024)

What was measured:
[1] = Bioavailability evaluation (pharmacokinetics after oral capsule administration); type: in vivo; conditions: fasted male beagle dogs, oral capsules, 10 mg/kg; for AUC(0-inf) / AUC(0-t) / Cmax / Tmax: dog, plasma
Experimental: Bioavailability was evaluated with regard to azetidin-1-yl{8-[(2,6-dimethylbenzyl)amino]-2,3-dimethylimidazo[1,2-a]pyridin-6-yl}methanone citrate according to Example 4(1) of the present invention and azetidin-1-yl{8-[(2,6-dimethylbenzyl)amino]-2,3-dimethylimidazo[1,2-a]pyridin-6-yl}methanone obtained according to Preparation Example 1 as an comparative example. Specific pharmacokinetic experiments and evaluation methods are as follows.
Fasted male beagle dogs were orally administered with capsules at a dose of 10 mg/kg, and bled at 0.08, 0.25, 0.5, 1, 3, 5, 8, and 24 hours after administration. Blood collected in an amount of 3 ml each from the jugular vein was centrifuged to separate plasma, and stored frozen in a cryogenic freezer before analysis.
Plasma pretreatment was performed by a protein precipitation method. 300 ul of acetonitrile containing an internal standard (200 ng/ml of carbamazepine) was added to 100 ul of a plasma sample and mixed. After sufficiently mixing, the resulting mixture was centrifuged at 12,000 rpm for 10 minutes, after which the supernatant was transferred to an assay vial and injected into a LC-MS/MS to analyze a blood concentration of the compound.
Parameters of time to maximum plasma concentration (Tmax), maximum plasma concentration (Cmax), and area under the plasma-concentration time curve (AUC0-t, AUC0-inf) were obtained using PK Solution.

[2] = Short-term storage stability (heat/moisture), purity by HPLC; type: physicochemical
Experimental: Purity of azetidin-1-yl{8-[(2,6-dimethylbenzyl)amino]-2,3-dimethylimidazo[1,2-a]pyridin-6-yl}methanone citrate according to Example 4(1) of the present invention was measured, and then the purity was measured after being left at 60°C for four days. Purity measurements were performed by HPLC. In addition, with regard to azetidin-1-yl{8-[(2,6-dimethylbenzyl)amino]-2,3-dimethylimidazo[1,2-a]pyridin-6-yl}methanone citrate according to Example 4(1) of the present invention, the purity was measured after being left for two days under the condition of 75 to 90% humidity (RH).

[3] = Thermal and moisture stability under accelerated conditions (40±2°C, 75±5% RH); type: physicochemical; conditions: for Moisture: criteria 1.0% or less; for Purity: criteria 99.0% or more; for Property: criteria: White to yellowish off-white powder
Experimental: (§1) An X-ray powder diffraction pattern was obtained through a solid phase detector over a range of 2° to 40° of a diffraction angle (2θ) with a 0.02° step size by using D8 Focus (Bruker ASX). The moisture content of the obtained sample was measured with an 870KF Titrino Plus (Metrohm) Karl-Fischer moisture meter. Immediately after preparing azetidin-1-yl{8-[(2,6-dimethylbenzyl)amino]-2,3-dimethylimidazo[1,2-a]pyridin-6-yl}methanone citrate according to Example 4(1) of the present invention, properties were confirmed with naked eyes, and the moisture content, purity, and XRD were measured, respectively. Subsequently, the same was primarily sealed in a polyethylene bag and then secondarily sealed in an aluminum bag, and then the properties were confirmed with naked eyes and the moisture content, purity, and XRD were also measured at one and six months after being stored under an accelerated condition of 40±2°C and 75±5% RH.

[4] = Long-term storage stability (25±2°C, 60±5% RH); type: physicochemical; conditions: for Moisture: criteria 1.0% or less; for Purity: criteria 99.0% or more; for Property: criteria: White to yellowish off-white powder
Experimental: as §1, with “at 12, 24” for “at one”, “and 36” for “and six”, “under the” for “under an accelerated”, “of 25±2°C” for “of 40±2°C”, “and 60±5%” for “and 75±5%”

[5] = Photostability evaluation (discoloration observed with naked eyes); type: physicochemical
Experimental: It is determined to be suitable only when the white to yellowish off-white powder form is maintained as a solid property.

[6] = Immediately after preparation (Initial value)

## Cc1cccc(C)c1CNc1cc(C(=O)N2CCC2)cn2c(C)c(C)nc12 [Compound I (free base), Azetidin-1-yl{8-[(2,6-dimethylbenzyl)amino]-2,3-dimethylimidazo[1,2-a]pyridin-6-yl}methanone]
[1]
  AUC(0-inf): 2820 ng·h/mL
  AUC(0-t): 2630 ng·h/mL
  Cmax: 262 ng/mL
  Tmax: 5 h

## Cc1cccc(C)c1CNc1cc(C(=O)N2CCC2)cn2c(C)c(C)nc12.O=C(O)CC(O)(CC(=O)O)C(=O)O [Citrate of Compound I, azetidin-1-yl{8-[(2,6-dimethylbenzyl)amino]-2,3-dimethylimidazo[1,2-a]pyridin-6-yl}methanone citrate]
[2]; Humidity 75~90 %, Day 2
  Purity (%): 99.976%
[2]; Initial value
  Purity (%): 99.955%
[2]; Temperature 60°C, Day 4
  Purity (%): 99.974%
[1]
  AUC(0-inf): 15200 ng·h/mL
  AUC(0-t): 15000 ng·h/mL
  Cmax: 3030 ng/mL
  Tmax: 1 h
  AUC improvement relative to Comparative Example (compound I free base): five times or more
  Cmax increase relative to Comparative Example (compound I free base): ≥ 11 times
[3]; 1 month, 40±2°C, 75±5% RH
  XRD (Comparison with initial value): Same
  Moisture: 0.75%
  Purity: 99.97%
  Property: Suitable
[3]; 6 months, 40±2°C, 75±5% RH
  XRD (Comparison with initial value): Same
  Moisture: 0.15%
  Purity: 99.96%
  Property: Suitable
[3]; [6]
  XRD (Comparison with initial value): Same
  Moisture: 0.74%
  Purity: 99.96%
  Property: Suitable
[4]; 12 months, 25±2°C, 60±5% RH
  XRD (Comparison with initial value): Same
  Moisture: 0.52%
  Purity: 99.96%
  Property: Suitable
[4]; 24 months, 25±2°C, 60±5% RH
  XRD (Comparison with initial value): Same
  Moisture: 0.45%
  Purity: 99.97%
  Property: Suitable
[4]; 36 months, 25±2°C, 60±5% RH
  XRD (Comparison with initial value): Same
  Moisture: 0.60%
  Purity: 99.96%
  Property: Suitable
[4]; [6]
  XRD (Comparison with initial value): Same
  Moisture: 0.74%
  Purity: 99.96%
  Property: Suitable
[5]; Initial value
  color: White
[5]; UV 200 watt (35 W), 25°C, humidity 60%
  color: Off-white
[5]; Visible 1200k lux (35k lux), 25°C, humidity 60%
  color: Slightly off-white
